Publication PMC7475896, “Ruthenium(II) and Iridium(III) Complexes as Tested Materials for New Anticancer Agents” (Materials, 2020)
Values after ≈ are worked out from the molar mass of the structure shown. “Also recorded” adds a separate entry of the source.

Assays:
[1] = tested on: myelomonocytic leukaemia (MV-4-11) cell line; test: in vitro cytotoxicity, MTT assay, MV-4-11; format: cell-based
Method: (§1) The cytotoxicity of the investigated complexes 1–3 was determined by microculture with sulforhodamine B SRB (all adherent cells) and MTT ([3-(4,5-dimethyl(thiazol-2-yl) -2,5-diphenyltetrazoliumbromide)]) (for cells in suspension (leukemia cells)) assays with the following three tumor cell lines: colorectal adenoma (LoVo), myelomonocytic leukemia (MV-4-11), and breast adenocarcinoma (MCF-7), as well as a healthy mouse fibroblast (BALB/3T3) cell line. The cytotoxicity of the compounds was measured using the methods described previously. […] The results for cisplatin, used as a test control, were presented in the form of IC50 value (this is the concentration of the compound causing the inhibition of cell proliferation of 50% of the cell population). The results were calculated from 2 to 3 independent experiments.

[2] = in vitro cytotoxicity, SRB assay, normal BALB/3T3; format: cell-based, mouse; conditions: mouse, BALB/3T3 normal mouse fibroblast cells; compound concentration 10 μg/mL; normal cell line
Method: as §1

[3] = biological target: T1, human serum albumin (HSA) (Homo sapiens, UniProt P02768); test: HSA binding by UV-Vis spectroscopy; conditions: HSA 2 × 10^−5 M in Tris-HCl/NaCl buffer
T1 construct: purchased Sigma-Aldrich Chemie GmbH (Steinheim, Germany)
T1 sequence (P02768 25-609): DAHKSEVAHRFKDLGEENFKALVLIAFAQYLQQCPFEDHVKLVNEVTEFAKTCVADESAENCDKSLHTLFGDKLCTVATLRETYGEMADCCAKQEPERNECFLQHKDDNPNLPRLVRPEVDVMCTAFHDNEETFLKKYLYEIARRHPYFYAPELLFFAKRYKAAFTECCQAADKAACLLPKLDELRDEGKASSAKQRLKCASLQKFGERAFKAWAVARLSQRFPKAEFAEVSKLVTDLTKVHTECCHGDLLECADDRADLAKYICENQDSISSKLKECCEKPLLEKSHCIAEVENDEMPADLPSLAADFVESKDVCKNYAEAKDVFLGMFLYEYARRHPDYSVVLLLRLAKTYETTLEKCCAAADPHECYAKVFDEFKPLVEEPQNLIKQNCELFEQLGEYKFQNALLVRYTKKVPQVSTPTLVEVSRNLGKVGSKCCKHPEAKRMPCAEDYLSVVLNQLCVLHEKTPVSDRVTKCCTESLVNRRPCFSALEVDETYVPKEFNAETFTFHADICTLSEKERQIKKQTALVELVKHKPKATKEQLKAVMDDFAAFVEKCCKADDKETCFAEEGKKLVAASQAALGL
Method: (§2) Determination of log P values, and studies on the interactions of ruthenium(II) (1), iridium(III) complexes (2, 3) with CT-DNA, HSA and GSH, were performed according to the previous procedure published in the paper.
(§3) Because plasma albumins can interfere with anticancer compounds and change their biological activity, especially their cytotoxicity effectiveness, it is important to obtain insight into interactions of the analyzed complexes with HSA as a plasma protein. The UV-Vis spectra of HSA with increasing amounts of complexes show increasing of HSA absorbance without any shift (Figure 13 a–c). […] To detect any changes of the microenvironment or the conformations of HSA caused by the analyzed complexes, CD spectroscopy was used (Figure 13e,f). […] The noticeable, spectral changes indicate a partial unfolding of the protein structure, leading to the loss of its stability.
(§4) Figure 13 Changes in UV-Vis absorption spectra of HSA (2 × 10^−5 M) in Tris-HCl/NaCl buffer upon addition of 1 (a), 2 (b) and 3 (c) in different molar ratio and CD spectra of HSA incubated with 1 (d), 2 (e) and 3 (f) in different molar ratio.

[4] = catalytic oxidation of NADH to NAD+ (UV-Vis); format: biochemical; conditions: complex 1 µM, NADH 100 µM, 50% MeOH/50% H2O, 37 °C, 9 h
Method: The reaction of analyzed complexes (1 µM) with NADH (100 µM) in 50% MeOH/50% H2O (V:V) was examined by UV-Vis spectroscopy at 37 °C after various time intervals (0.5–9 h). The turnover number (TON) was calculated from the difference in NADH concentration after 9 h divided by the concentration of analyzed iridium complexes. The concentration of NADH was obtained using the extinction coefficient ε339 = 6220 M^−1cm^−1.
Figure 12 UV-Vis spectra for the catalytic oxidation of NADH (100 μM) to NAD^+ in the presence of complexes (1 μM) over a 9 h period in 50% MeOH/50% H2O (V:V) (inset: wavelength absorbance changes from 315-360 nm).

CT-DNA = test: DNA melting test by 3D CD; format: binding; conditions: 100 μM CT-DNA, Tris-HCl/NaCl pH 7.2; free CT-DNA Tm 55.2 ± 0.7 °C
Method: The melting profiles of DNA/complex mixtures were recorded on a Jasco J-815 spectropolarimeter (Kettenbrückengasse, Austria) equipped with a CDF-426S/15 Peltier temperature controller. CD melting experiments were performed using 100 μM CT DNA concentration, in the absence and presence of 100 equivalents of complexes (in Tris-HCl/NaCl buffer, pH 7.2). CD melting were performed at 5 °C/min heating rate in the 35–95 °C temperature range. Each spectrum was recorded in the 220–300 nm wavelength range, averaged over three scans and subtracting the buffer baseline. After each temperature change, the system was left to equilibrate for 3 min. From 3D data, we selected the proper wavelength (256 nm) and obtained a classic 2D melting profile (fraction folded vs. temperature). The melting temperatures (Tm) were mathematically calculated by using the curve fitting function in Origin 2020 software (OriginLab, Northampton, MA, USA). Tm values represent the melting temperature of the DNA with and without complexes.
To solve the problem of the mode of iridium-DNA binding, covalent and non-covalent, DNA melting experiments were conducted. […] The Tm of the tested solution was determined as the transition midpoint of the melting curve by monitoring the maximum of the ellipticity and absorbance as a function of temperature ranging from 35 to 95 °C. […]

[5] = biological target: T1, human serum albumin (HSA); test: HSA conformation by CD spectroscopy; format: binding; conditions: free HSA 56%
Method: as §2, §3, §4

[6] = lipophilicity (log P) determination; format: physicochemical
Method: as §2

[7] = tested on: normal mouse fibroblast (BALB/3T3) cell line; test: in vitro cytotoxicity, SRB assay, normal BALB/3T3; format: cell-based; conditions: for Cell viability [%] BALB/3T3: compound concentration 10 μg/mL, normal cell line
Method: as §1

[8] = glutathione deactivation experiment (Ellman method); format: biochemical; conditions: after 28 h incubation
Method: as §2
Comparing similar data of cell viability and IC50 for both iridium(III) complexes with GSH deactivation results, some correlation was observed.

[9] = tested on: breast adenocarcinoma (MCF-7) cell line; test: in vitro cytotoxicity, SRB assay, MCF-7; format: cell-based; conditions: concentration of 10 μg/mL
Method: as §1

[10] = tested on: normal mouse fibroblast (BALB/3T3) cell line; conditions: read-out: IC50 against normal BALB/3T3; cited from earlier work
[11] = tested on: colorectal adenoma (LoVo) cell line; test: in vitro cytotoxicity, SRB assay, LoVo; format: cell-based; conditions: concentration of 10 μg/mL
Method: as §1

[12] = compound concentration 10 μg/mL

Row | Compound | IC50 against MV-4-11 ([1]; MV-4-11 cell line) [µg/mL] | Cell viability [%] MV-4-11 [1, 12] [%] | HSA binding constant [3] | turnover number (TON) [4] | decrease of melting temperature (Tm) of CT-DNA (CT-DNA) | α-helical structure of HSA under the influence of complex [5] [%] | log P [6] | Cell viability [%] BALB/3T3 [7] [%] | concentration of unreacted GSH remaining [8] [µM] | also measured
1 | N.N.[Cl][Pt][Cl] [cisplatin, reference compound] | 0.27 | – | – | – | – | – | – | – | – | –
2 | O=C(c1ccccn1)c1ccccn1 [py2CO, di-2-pyridylketone, reference compound] | – | – | – | – | – | – | – | – | – | IC50 ([1]; Homo sapiens, MV4-11, MV-4-11 cell line, read-out: IC50 against MV-4-11): 62.9 µg/mL (≈ 341 µM); viability at 10 µg/mL ([1]; Homo sapiens, MV4-11, compound concentration 10 μg/mL): 98%; viability at 10 µg/mL [2]: 95.5%
3 | NH4[IrCl4(py2CO)]·H2O [complex 3] | 35.8 ± 13.9 | 68 | 6.54 × 10^4 | 4.8 | ~8.5 °C | 55 | −0.30 ± 0.05 | 98.6 | 37 | toxic effect against normal BALB/3T3 ([7]; result in words): without a toxic effect; also recorded: without any toxic effect
4 | [(η^5-Cp)IrCl(py2CO)]PF6 [complex 2] | 40.2 | 68 | 1.52 × 10^5 | 3.3 | approximately 0.5 °C | 52 | −1.14 ± 0.06 | 100 | 37 | inhibition of cell proliferation, MCF-7 [9]: 3.7%
5 | [(η^6-p-cymene)RuCl(2,2′-PyBIm)]PF6 | – | – | – | – | – | – | – | – | – | IC50 [10]: 43.7 µM
6 | [(η^6-p-cymene)RuCl(py2CO)]PF6 [complex 1] | 49.8 | 83 | 3.22 × 10^5 | – | – | 51 | −1.44 ± 0.11 | – | – | inhibition of cell proliferation, LoVo [11]: 1.4%
